{"source": "patent US4080467A", "about": "“Pharmaceutical compositions comprising 1,3-dithiolan-2-ylidene malonate derivatives” (Nihon Nohyaku Co., Ltd., priority 1976, dated 1978)", "key": {"[1]": {"tested_on": "Acute Liver Damage associated with Centrilobular Necrosis (carbon tetrachloride)", "test": "Protective effect on acute liver damage associated with centrilobular necrosis (carbon tetrachloride model)", "format": "in vivo, mice (four-week-old male, dd strain)", "conditions": "250 mg/kg oral 6 h before CCl4, average of 5 to 6 mice"}, "[2]": {"test": "Effect on glucose metabolism (blood sugar after glucose load)", "format": "in vivo, mice", "conditions": "for Blood Sugar: 250 mg/kg oral 6 h before glucose 4.0 g/kg", "description": "The test compounds dissolved in olive oil and administered orally at the dose of 250 mg/kg to the mice. After 6 hours, 4.0 g/kg of glucose was orally administered. The same amount of glucose was given to the control animals. 0.02 ml of blood was taken from caudal vein of the mice at 30, 60, 90 and 120 min. after glucose administration. Blood sugar was measured by the procedure of Somogyi-Nelson. Number of animals used was 5 to 6 mice for each treatment."}, "[3]": {"tested_on": "acute liver damage associated with periportal necrosis (allyl alcohol)", "test": "Protective effect on acute liver damage associated with periportal necrosis (allyl alcohol model), BSP test", "format": "in vivo, male mouse (4 week-old dd-strain)", "conditions": "100 mg/kg oral 6 h before allyl alcohol 0.075 ml/kg; 24 h after", "description": "The compound of this invention or anethol trithion was orally administered to the male mouse (4 week-old dd-strain) at the dose of 100 mg/kg. Six hours after it, allyl alcohol was orally administered at the dose of 0.075 ml/kg. Twenty four hours after it, the animals were sacrificed to collect blood samples. The residual quantity of BSP was measured by BSP test, from which the protective effect of the compound of this invention was evaluated."}, "[4]": {"tested_on": "bile flow and biliary salt", "test": "Cholagogic action: bile flow and excretion of biliary salt", "format": "in vivo, male rat (4 week-aged, SD-JCL strain)", "conditions": "200 mg/kg oral; for bile flow / excretion of biliary salt: before treatment = 100"}, "[5]": {"tested_on": "Chronic Liver Damage (thioacetamide)", "test": "Therapeutic effect on chronic liver damage (thioacetamide model), BSP test", "format": "in vivo, rats (Sprague Dawley strain)", "conditions": "12 times TAA 100 mg/kg, then diet + 0.2% compound", "description": "In the tests of this Example, TAA was repeatedly administered to animals to prepare test animals suffering from somewhat chronic liver damages, and then the present compounds were administered thereto to know whether or not the compounds were effective against chronic hepatitis.\nThe degree of the liver damage and the therapeutic effects of the compounds were evaluated according to BSP test. The BSP test is a method in which BSP (sulfobromophthalein sodium), a dye known to be quickly metabolized in and excreted from the liver, is intravenously injected into animals and, after a definite period of time, the blood is taken out to measure the amount of BSP remaining in the plasma. In case the animals are suffering from the liver damage, the dye will remain, according to the degree of the damage, at the stage where a major portion of BSP is metabolized and excreted in the case of normal animals.\nFive groups of rats (Sprague Dawley strain) were treated as follows:\nGroup A: The rats were orally administered with 100 mg/kg of thioacetamide,at 3 days intervals for 36 days (12 times of the administration), then were submitted for 10 days to a normal diet.\nGroup B: The rats were orally administered with 100 mg/kg of thioacetamide at 3 days intervals for 36 days (12 times of the administration), then were submitted for 10 days to the normal diet + 0.2% of compound 4.\nGroup C: The rats were orally administered with 100 mg/kg of thioacetamide at 3 days intervals for 36 days (12 times of the administration) then were submitted for 10 days to the normal diet + 0.2% of compound 2.\nGroup D: The rats were orally administered with 100 mg/kg of thioacetamide at 3 days intervals for 36 days (12 times of the administration) then were submitted for 10 days to the normal diet + 0.2% of anethol trithion.\nGroup E: The rats were submitted to the normal diet as the control.\nFive rats were sacrified from each group at appropriate intervals for BSP (sulfobromophthalein) test, the results of which were shown as amounts (mg) of BSP remaining in 1 dl of plasma."}}}
{"smiles": "CC(C)OC(=O)C(C(=O)OC(C)C)=C1SCCS1", "note": "[Compound 4, Diisopropyl 1,3-dithiolan-2-yliden malonate]", "values": [{"measurement": "p-GPT (plasma glutamic-pyruvic transaminase activity)", "setting": "[1]; 24 h after CCl4, values over 1,000 regarded as 1,000", "result": 23, "unit": "Karmen units"}, {"measurement": "Liver Damage Index", "setting": "[1]; 0 normal, 2 slightly recognized, 4 clearly observable damage, 6 heavy damage", "result": 0.2}, {"measurement": "Blood Sugar (percent of 0 min value)", "setting": "[2]; 0 min", "result": 100, "unit": "%"}, {"measurement": "Blood Sugar", "setting": "[2]; 0 min", "result": "134 ± 24.8", "unit": "mg/dL"}, {"measurement": "Blood Sugar", "setting": "[2]; 30 min", "result": "258 ± 22.2", "unit": "mg/dL"}, {"measurement": "Blood Sugar", "setting": "[2]; 60 min", "result": "232 ± 13.0", "unit": "mg/dL"}, {"measurement": "Blood Sugar", "setting": "[2]; 90 min", "result": "190 ± 23.6", "unit": "mg/dL"}, {"measurement": "Blood Sugar", "setting": "[2]; 120 min", "result": "152 ± 23.4", "unit": "mg/dL"}, {"measurement": "Blood Sugar (percent of 0 min value)", "setting": "[2]; 30 min", "result": 192, "unit": "%"}, {"measurement": "Blood Sugar (percent of 0 min value)", "setting": "[2]; 60 min", "result": 173, "unit": "%"}, {"measurement": "Blood Sugar (percent of 0 min value)", "setting": "[2]; 90 min", "result": 142, "unit": "%"}, {"measurement": "Blood Sugar (percent of 0 min value)", "setting": "[2]; 120 min", "result": 113, "unit": "%"}, {"measurement": "Index of hepatotoxicity: BSP (residual quantity of BSP)", "setting": "[3]", "result": "16±2.3"}, {"measurement": "bile flow", "setting": "[4]; 1 hour after treatment", "result": "110±4.2"}, {"measurement": "excretion of biliary salt", "setting": "[4]; 1 hour after treatment", "result": "105±13"}, {"measurement": "bile flow", "setting": "[4]; 2 hours after treatment", "result": "115±6.3"}, {"measurement": "excretion of biliary salt", "setting": "[4]; 2 hours after treatment", "result": "125±20"}, {"measurement": "bile flow", "setting": "[4]; 3 hours after treatment", "result": "110±7.2"}, {"measurement": "excretion of biliary salt", "setting": "[4]; 3 hours after treatment", "result": "132±26"}, {"measurement": "bile flow", "setting": "[4]; 4 hours after treatment", "result": "112±8.5"}, {"measurement": "excretion of biliary salt", "setting": "[4]; 4 hours after treatment", "result": "115±23"}, {"measurement": "bile flow", "setting": "[4]; 5 hours after treatment", "result": "92±4.7"}, {"measurement": "excretion of biliary salt", "setting": "[4]; 5 hours after treatment", "result": "81±7.2"}, {"measurement": "Amount of total biliary salts excreted for 5 hours relative to control", "setting": "[4]; versus control", "result": 1.61, "unit": "times"}, {"measurement": "Quantity of total excreted bile for 5 hours relative to control", "setting": "[4]; versus control", "result": 1.15, "unit": "times"}, {"measurement": "Concentration of BSP in plasma", "setting": "[5]; 2 Days", "result": "7.6 ± 1.1", "unit": "mg/dL"}, {"measurement": "Concentration of BSP in plasma", "setting": "[5]; 5 Days", "result": "3.8 ± 0.5", "unit": "mg/dL"}, {"measurement": "Concentration of BSP in plasma", "setting": "[5]; 10 Days", "result": "0.3 ± 0.1", "unit": "mg/dL"}]}
